This note sets out measurements from patent publication US20220041957A1, “GLUCAMIDE-BASED SURFACTANTS” (Clariant International Ltd., priority 2018, published 2022).

One series is described as follows: Foam (collapse) test. The format is physicochemical. Particulars: 20 mL of 1 wt. % solution, 20 shakes; for Foam Height, 2 min: after 2 min; for Foam Height, 3 min: after 3 min; for Foam Height, 5 min: after 5 min; for Foam Height, Initial: directly after shaking. How it is done:
20 mL of 1 wt. % solution of each substance were placed into a graduated 100 mL measurement cylinder, which was sealed with a stopper. Foam was generated by 20 shakes. The foam height was determined as mL foam above the aqueous layer directly after shaking, after 2, 3 and 5 min.

Series [1] in a line: Wetting test on cotton swatches. The format is physicochemical. Particulars: 0.1 wt. % surfactant solution in water; for Wetting Performance: rating in words; for Wetting time: time until swatch sinks to bottom. How it is done:
Cotton swatches (ISO 8022, obtained from wfk-Testgewebe GmbH) were placed in 600 mL beaker, filled with the corresponding 0.1 wt. % surfactant solution in water. The time between placing the swatches into the solution and sinking to the bottom was measured.

As to `CCCCCCCCCCCC(O)CC(=O)N(C)C[C@H](O)[C@@H](O)[C@H](O)[C@H](O)CO` (stereo partly drawn) [Example 2], in “Foam (collapse) test”, the “Foam Height, 2 min” value was found to be 60 mL; the “Foam Height, 3 min” value was found to be 33 mL; the “Foam Height, 5 min” value turned out to be 19 mL; the “Foam Height, Initial” value is 80 mL. Besides, in series [1], the “Wetting Performance” value is reported as “good” and the Wetting time is 60 s.

Turning to `CN(C[C@H](O)[C@@H](O)[C@H](O)[C@H](O)CO)C(=O)CCCCCCCCCCCCCCCO` [Example 4], in “Foam (collapse) test”, the “Foam Height, 2 min” value is recorded as 67 mL; the “Foam Height, 3 min” value stood at 50 mL; the “Foam Height, 5 min” value came to 33 mL; the “Foam Height, Initial” value was 89 mL. Further, in series [1], the “Wetting Performance” value is “poor” and the Wetting time is on record as more than 300 s.
